Experimental data reported in ChEMBL document CHEMBL2429833, “A new class of bactericidal agents against S. aureus, MRSA and VRE derived from bisindolylmethane” (Med Chem Res, 2013).
Converted amounts (≈) assume the structure as drawn. The source made the active and inactive calls. No cut-off for these calls is given here.

Legend:
Pseudomonas aeruginosa = assay: Antibacterial activity against Pseudomonas aeruginosa ATCC 27853 after 24 hrs by microdilution method; type: functional, organism-based
Escherichia coli = assay: Antibacterial activity against Escherichia coli ATCC 25922 after 24 hrs by microdilution method; type: functional, organism-based
Enterococcus faecalis [1] = assay: Antibacterial activity against vancomycin-resistant Enterococcus faecalis after 24 hrs by microdilution method; type: functional
Staphylococcus aureus [2] = assay: Antibacterial activity against methicillin-resistant Staphylococcus aureus after 24 hrs by microdilution method; type: functional
Staphylococcus aureus [3] = assay: Antibacterial activity against Staphylococcus aureus ATCC 29213 after 24 hrs by microdilution method; type: functional; conditions: ATCC 29213, 24 h
Enterococcus faecalis [4] = assay: Bactericidal activity against vancomycin-resistant Enterococcus faecalis after 24 hrs; type: functional
Staphylococcus aureus [5] = assay: Bactericidal activity against methicillin-resistant Staphylococcus aureus after 24 hrs; type: functional
Staphylococcus aureus [6] = assay: Bactericidal activity against Staphylococcus aureus ATCC 29213 after 24 hrs; type: functional; conditions: ATCC 29213, 24 h
A549 = assay: Cytotoxicity against human A549 cells after 48 hrs by MTT assay; type: functional, cell-based
HeLa = assay: Cytotoxicity against human HeLa cells after 48 hrs by MTT assay; type: functional, cell-based
PC-3 = assay: Cytotoxicity against human PC3 cells after 48 hrs by MTT assay; type: functional, cell-based

| SMILES | Activity (Pseudomonas aeruginosa) | Activity (Escherichia coli) | MIC (Enterococcus faecalis [1]) | MIC (Staphylococcus aureus [2]) | MIC (Staphylococcus aureus [3]) | MBC (Enterococcus faecalis [4]) | MBC (Staphylococcus aureus [5]) | MBC (Staphylococcus aureus [6]) | IC50 (A549) | IC50 (HeLa) | IC50 (PC-3) |
| --- | --- | --- | --- | --- | --- | --- | --- | --- | --- | --- | --- |
| COc1ccc(C(c2c[nH]c3ccc(Br)cc23)c2c[nH]c3ccc(Br)cc23)c(OC)c1 | inactive | inactive | > 256 µg/mL | 256 µg/mL (≈ 474 µM) | 256 µg/mL (≈ 474 µM) | – | – | – | – | – | – |
| COc1ccc(C(c2c[nH]c3ccc(Br)cc23)c2c[nH]c3ccc(Br)cc23)cc1 | inactive | inactive | 32 µg/mL (≈ 62.7 µM) | 32 µg/mL (≈ 62.7 µM) | 16 µg/mL (≈ 31.4 µM) | 32 µg/mL (≈ 62.7 µM) | 32 µg/mL (≈ 62.7 µM) | 32 µg/mL (≈ 62.7 µM) | – | – | – |
| Fc1ccc(Cn2cc(C(c3ccc(F)cc3)c3cn(Cc4ccc(F)cc4)c4ccc(Br)cc34)c3cc(Br)ccc32)cc1 | – | – | > 128 µg/mL | > 128 µg/mL | > 128 µg/mL | – | – | – | 8.7 µM | 1.1 µM | 36.5 µM |
| COc1ccc(Cn2cc(C(c3ccc(F)cc3)c3cn(Cc4ccc(OC)cc4)c4ccc(Br)cc34)c3cc(Br)ccc32)cc1 | – | – | > 128 µg/mL | > 128 µg/mL | > 128 µg/mL | – | – | – | 36.4 µM | 48.5 µM | 43.5 µM |
| Clc1ccc(C(c2c[nH]c3ccc(Br)cc23)c2c[nH]c3ccc(Br)cc23)cc1 | inactive | inactive | 8 µg/mL (≈ 15.5 µM) | 8 µg/mL (≈ 15.5 µM) | 4 µg/mL (≈ 7.77 µM) | 8 µg/mL (≈ 15.5 µM) | 8 µg/mL (≈ 15.5 µM) | 4 µg/mL (≈ 7.77 µM) | – | – | – |
| c1ccc(C(c2c[nH]c3ccccc23)c2c[nH]c3ccccc23)cc1 | inactive | inactive | > 256 µg/mL | > 256 µg/mL | > 256 µg/mL | – | – | – | – | – | – |
| CC(c1ccccc1)(c1c[nH]c2ccc(Br)cc12)c1c[nH]c2ccc(Br)cc12 | inactive | inactive | > 256 µg/mL | > 256 µg/mL | > 256 µg/mL | – | – | – | – | – | – |
| Fc1ccc(C(c2cn(Cc3ccc(Br)cc3)c3ccc(Br)cc23)c2cn(Cc3ccc(Br)cc3)c3ccc(Br)cc23)cc1 | – | – | > 128 µg/mL | > 128 µg/mL | > 128 µg/mL | – | – | – | 24.7 µM | 49 µM | 43.7 µM |
| COc1ccc2c(c1)OC(C)(C)CC2(c1c[nH]c2ccc(Br)cc12)c1c[nH]c2ccc(Br)cc12 | inactive | inactive | 8 µg/mL (≈ 13.8 µM) | 4 µg/mL (≈ 6.89 µM) | 4 µg/mL (≈ 6.89 µM) | 8 µg/mL (≈ 13.8 µM) | 8 µg/mL (≈ 13.8 µM) | 4 µg/mL (≈ 6.89 µM) | – | – | – |
| CCCCCn1cc(C(c2ccc(F)cc2)c2cn(CCCCC)c3ccc(Br)cc23)c2cc(Br)ccc21 | – | – | > 128 µg/mL | > 128 µg/mL | > 128 µg/mL | – | – | – | 32.5 µM | 27.2 µM | 40.3 µM |
| CCCCCCCCC(c1c[nH]c2ccc(Br)cc12)c1c[nH]c2ccc(Br)cc12 | inactive | inactive | > 256 µg/mL | > 256 µg/mL | > 256 µg/mL | – | – | – | – | – | – |
| Oc1cccc(C(c2c[nH]c3ccc(Br)cc23)c2c[nH]c3ccc(Br)cc23)c1 | inactive | inactive | 4 µg/mL (≈ 8.06 µM) | 2 µg/mL (≈ 4.03 µM) | 1 µg/mL (≈ 2.02 µM) | 8 µg/mL (≈ 16.1 µM) | 2 µg/mL (≈ 4.03 µM) | 1 µg/mL (≈ 2.02 µM) | – | – | – |
| Brc1ccc2[nH]cc(C(c3ccccc3)c3c[nH]c4ccc(Br)cc34)c2c1 | inactive | inactive | 256 µg/mL (≈ 533 µM) | 256 µg/mL (≈ 533 µM) | 256 µg/mL (≈ 533 µM) | – | – | – | – | – | – |
| Fc1ccc(C(c2cn(Cc3ccccc3)c3ccc(Br)cc23)c2cn(Cc3ccccc3)c3ccc(Br)cc23)cc1 | – | – | > 128 µg/mL | > 128 µg/mL | > 128 µg/mL | – | – | – | 28.2 µM | 28.3 µM | 43.1 µM |
| COc1ccc(Br)cc1C(c1c[nH]c2ccc(Br)cc12)c1c[nH]c2ccc(Br)cc12 | inactive | inactive | 256 µg/mL (≈ 435 µM) | 256 µg/mL (≈ 435 µM) | 128 µg/mL (≈ 217 µM) | – | – | – | – | – | – |
| CCOc1ccc2c(c1)OC(C)(C)CC2(c1c[nH]c2ccc(Br)cc12)c1c[nH]c2ccc(Br)cc12 | inactive | inactive | 32 µg/mL (≈ 53.8 µM) | 32 µg/mL (≈ 53.8 µM) | 8 µg/mL (≈ 13.5 µM) | 32 µg/mL (≈ 53.8 µM) | 32 µg/mL (≈ 53.8 µM) | 8 µg/mL (≈ 13.5 µM) | – | – | – |
| Oc1ccc(C(c2c[nH]c3ccc(Br)cc23)c2c[nH]c3ccc(Br)cc23)cc1 | inactive | inactive | 2 µg/mL (≈ 4.03 µM) | 1 µg/mL (≈ 2.02 µM) | 0.5 µg/mL (≈ 1.01 µM) | 2 µg/mL (≈ 4.03 µM) | 1 µg/mL (≈ 2.02 µM) | 0.5 µg/mL (≈ 1.01 µM) | – | – | – |
| CCCC(c1c[nH]c2ccc(Br)cc12)c1c[nH]c2ccc(Br)cc12 | inactive | inactive | > 256 µg/mL | > 256 µg/mL | > 256 µg/mL | – | – | – | – | – | – |
| N#Cc1ccc2[nH]cc(C(c3ccc(F)cc3)c3c[nH]c4ccc(C#N)cc34)c2c1 | inactive | inactive | 8 µg/mL (≈ 20.5 µM) | 1 µg/mL (≈ 2.56 µM) | 1 µg/mL (≈ 2.56 µM) | 8 µg/mL (≈ 20.5 µM) | 1 µg/mL (≈ 2.56 µM) | 1 µg/mL (≈ 2.56 µM) | – | – | – |
